Reference: EP3212201B1, “NUCLEOSIDE KINASE INHIBITORS” (BCI Pharma, priority 2014, dated 2016)

How the values were obtained:
Experiment in all cases: FRET-based coupled-enzyme protein kinase inhibition assay
Type in all cases: biochemical
Settings in all cases: compound at 10 µM, 1% DMSO
[1] = molecular target: T1, NEK1 (Homo sapiens, UniProt Q96PY6)
T1 sequence (Q96PY6 1-1258): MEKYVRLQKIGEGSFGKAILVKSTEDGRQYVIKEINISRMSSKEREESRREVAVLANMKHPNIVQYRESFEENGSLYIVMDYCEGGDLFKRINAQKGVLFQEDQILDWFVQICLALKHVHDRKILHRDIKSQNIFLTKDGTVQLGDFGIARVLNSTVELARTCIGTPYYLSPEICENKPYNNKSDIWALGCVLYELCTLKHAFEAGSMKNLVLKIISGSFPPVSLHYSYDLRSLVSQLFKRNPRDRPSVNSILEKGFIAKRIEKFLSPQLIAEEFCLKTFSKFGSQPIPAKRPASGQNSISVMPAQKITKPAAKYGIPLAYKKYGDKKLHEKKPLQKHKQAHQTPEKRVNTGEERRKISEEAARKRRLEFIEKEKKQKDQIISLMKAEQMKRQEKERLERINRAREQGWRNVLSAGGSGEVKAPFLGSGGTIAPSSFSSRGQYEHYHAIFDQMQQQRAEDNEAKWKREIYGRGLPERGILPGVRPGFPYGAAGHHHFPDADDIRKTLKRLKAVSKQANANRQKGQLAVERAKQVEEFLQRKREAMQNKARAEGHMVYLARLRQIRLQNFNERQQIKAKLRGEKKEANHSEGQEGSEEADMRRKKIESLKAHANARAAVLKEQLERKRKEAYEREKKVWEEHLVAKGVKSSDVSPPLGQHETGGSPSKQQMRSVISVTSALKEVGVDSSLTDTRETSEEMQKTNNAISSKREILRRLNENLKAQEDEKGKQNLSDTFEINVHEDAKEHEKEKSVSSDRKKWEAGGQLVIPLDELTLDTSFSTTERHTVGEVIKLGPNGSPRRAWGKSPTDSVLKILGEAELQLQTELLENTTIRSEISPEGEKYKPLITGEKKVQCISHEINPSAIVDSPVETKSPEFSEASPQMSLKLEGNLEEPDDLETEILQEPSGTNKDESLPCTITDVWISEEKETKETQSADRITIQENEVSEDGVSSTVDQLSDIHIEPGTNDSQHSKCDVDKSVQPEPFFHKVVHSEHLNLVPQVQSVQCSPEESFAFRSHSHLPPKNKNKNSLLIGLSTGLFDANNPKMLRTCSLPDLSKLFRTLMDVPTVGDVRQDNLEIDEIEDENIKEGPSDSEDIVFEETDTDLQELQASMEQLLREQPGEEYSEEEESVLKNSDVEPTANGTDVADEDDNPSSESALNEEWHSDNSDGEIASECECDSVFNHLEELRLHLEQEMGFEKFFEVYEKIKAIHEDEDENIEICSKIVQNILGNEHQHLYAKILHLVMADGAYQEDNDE
Procedure, shortened: (§1)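 Inhibition was quantified ratiometrically, as coumarin over fluorescein emission following 400 nm excitation, on a doubly labeled peptide whose cleavage by development reagent requires it to remain unphosphorylated. Kinase reactions ran 60 min at room temperature with ATP at apparent Km.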

[2] = molecular target: T2, CHEK1 (CHK1) (Homo sapiens, UniProt O14757)
T2 sequence (O14757 1-476): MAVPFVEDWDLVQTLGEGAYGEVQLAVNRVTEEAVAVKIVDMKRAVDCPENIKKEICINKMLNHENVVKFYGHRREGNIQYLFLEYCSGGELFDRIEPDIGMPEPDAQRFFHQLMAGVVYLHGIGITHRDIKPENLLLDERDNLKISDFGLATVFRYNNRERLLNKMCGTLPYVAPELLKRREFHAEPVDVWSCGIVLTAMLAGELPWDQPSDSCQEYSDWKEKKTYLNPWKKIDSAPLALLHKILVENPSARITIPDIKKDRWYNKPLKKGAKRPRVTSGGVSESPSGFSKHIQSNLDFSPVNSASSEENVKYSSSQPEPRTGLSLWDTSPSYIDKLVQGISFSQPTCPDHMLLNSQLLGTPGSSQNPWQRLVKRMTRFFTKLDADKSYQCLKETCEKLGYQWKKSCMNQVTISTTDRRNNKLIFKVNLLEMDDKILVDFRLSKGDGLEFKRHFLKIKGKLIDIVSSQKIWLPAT
Procedure, shortened: as §1

[3] = molecular target: LCK (Homo sapiens, UniProt P06239)
LCK, sequence (P06239 whole entry, species assumed): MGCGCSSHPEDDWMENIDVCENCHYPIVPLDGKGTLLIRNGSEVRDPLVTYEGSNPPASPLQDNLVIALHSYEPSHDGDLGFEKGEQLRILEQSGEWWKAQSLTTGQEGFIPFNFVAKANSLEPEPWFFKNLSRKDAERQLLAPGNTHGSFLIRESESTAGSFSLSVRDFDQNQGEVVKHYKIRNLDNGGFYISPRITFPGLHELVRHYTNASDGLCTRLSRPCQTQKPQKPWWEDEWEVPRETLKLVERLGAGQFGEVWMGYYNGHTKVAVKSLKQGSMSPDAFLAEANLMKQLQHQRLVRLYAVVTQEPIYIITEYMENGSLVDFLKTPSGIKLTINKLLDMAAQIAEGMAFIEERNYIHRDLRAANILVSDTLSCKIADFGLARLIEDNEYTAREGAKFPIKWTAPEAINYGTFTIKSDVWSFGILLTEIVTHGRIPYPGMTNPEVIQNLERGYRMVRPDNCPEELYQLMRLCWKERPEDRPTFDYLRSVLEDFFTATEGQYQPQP
Procedure, shortened: as §1

Row | SMILES | inhibition at 10 µM [1] [%] | inhibition at 10 µM [2] [%] | inhibition at 10 µM [3] [%]
1 | Nc1ncnc2c1ncn2[C@@H]1O[C@H](COC(=O)NCCCc2nc3ccccc3[nH]2)[C@@H](O)[C@H]1O [Compound C1] | -4 | -20 | 72
2 | C[C@@H](NC(=O)OC[C@H]1O[C@@H](n2cnc3c(N)ncnc32)[C@H](O)[C@@H]1O)c1ccc(Cl)cc1 [Compound C4] | 4 | -11 | 60
3 | Nc1ncnc2c1ncn2[C@@H]1O[C@H](COC(=O)NC[C@H](O)CO)[C@@H](O)[C@H]1O [Compound C8] | -5 | -8 | 26
4 | Nc1ncnc2c1ncn2[C@@H]1O[C@H](COC(=O)N2CCC[C@H]2CO)[C@@H](O)[C@H]1O [Compound C9] | -3 | 14 | 19
5 | Nc1ncnc2c1ncn2[C@@H]1O[C@H](COC(=O)N[C@@H]2CCN(Cc3ccccc3)C2)[C@@H](O)[C@H]1O [Compound C10] | 11 | -3 | 62
6 | Nc1ncnc2c1ncn2[C@@H]1O[C@H](COC(=O)N2CCN(Cc3ccccc3)CC2CO)[C@@H](O)[C@H]1O (stereo partly drawn) [Compound C13] | 4 | -8 | 44
7 | CC(C)N1CCC(NC(=O)OC[C@H]2O[C@@H](n3cnc4c(N)ncnc43)[C@H](O)[C@@H]2O)CC1 [Compound C19] | -2 | -16 | 32
8 | Nc1ncnc2c1ncn2[C@@H]1O[C@H](COC(=O)NCCN2CCCC2=O)[C@@H](O)[C@H]1O [Compound C22] | -2 | -14 | 15
9 | Nc1ncnc2c1ncn2[C@@H]1O[C@H](COC(=O)N2CCN(CCc3ccccc3)CC2)[C@@H](O)[C@H]1O [Compound C26] | -7 | 20 | 57

Results, then the molecule that gave them:

Row | inhibition at 10 µM [1] [%] | inhibition at 10 µM [2] [%] | inhibition at 10 µM [3] [%] | SMILES
10 | 7 | 2 | 13 | CN1CCN(CCNC(=O)OC[C@H]2O[C@@H](n3cnc4c(N)ncnc43)[C@H](O)[C@@H]2O)CC1 [Compound C46]
11 | -5 | 18 | 57 | Nc1ncnc2c1ncn2[C@@H]1O[C@H](COC(=O)N2CCC(Cc3ccc(F)cc3)C2)[C@@H](O)[C@H]1O (stereo partly drawn) [Compound C66]
12 | 6 | -11 | 11 | N#CCCN1CCN(C(=O)OC[C@H]2O[C@@H](n3cnc4c(N)ncnc43)[C@H](O)[C@@H]2O)CC1 [Compound C70]
13 | 1 | -9 | 25 | CN(C)CCNC(=O)OC[C@H]1O[C@@H](n2cnc3c(N)ncnc32)[C@H](O)[C@@H]1O [Compound C85]
14 | -7 | -20 | 9 | Nc1ncnc2c1ncn2[C@@H]1O[C@H](COC(=O)N2CCN(C(=O)N3CCOCC3)CC2)[C@@H](O)[C@H]1O [Compound C89]
15 | 0 | -8 | 84 | CS(=O)(=O)N1CC2(CCN(C(=O)OC[C@H]3O[C@@H](n4cnc5c(N)ncnc54)[C@H](O)[C@@H]3O)CC2)c2ccccc21 [Compound C98]
16 | -3 | -8 | 9 | Nc1ncnc2c1ncn2[C@@H]1O[C@H](COC(=O)N2CCS(=O)(=O)CC2)[C@@H](O)[C@H]1O [Compound C100]
